Patent US20040006070A1, “Intraspinal continuous infusion of midazolam hydrochloride for the treatment of pain” (priority 2002, published 2004)
Counter-ions that a name gives are not always drawn.

Assay: Bloodwork: complete blood count, electrolytes, extended blood chemistry
Type: in vivo, sheep
Description: Indirect blood pressure, pulse recording, pain testing (mechanical stimulus device, cold and warm water baths see description in procedure) and weight were taken on days 1, 3, 7, 15, 22, 29, 36, and 43. Venous blood samples (15 ml drawn from the jugular vein with Vacutainer brand blood collection tubes) for complete blood count, electrolytes, and extended blood chemistry were drawn on days 1, 15, and 43 (mild procedure only light hand restraint necessary).

[1] = sheep Petunia #439, 15 mg/day, Day 15
[2] = sheep Petunia #439, 15 mg/day, Day 43
[3] = sheep Porky #402, 5 mg/day, Baseline
[4] = sheep Porky #402, 5 mg/day, Day 1
[5] = sheep Porky #402, 5 mg/day, Day 15
[6] = sheep Porky #402, 5 mg/day, Day 43

## Cc1ncc2n1-c1ccc(Cl)cc1C(c1ccccc1F)=NC2 [Midazolam, midazolam hydrochloride]
[1]
  Differential Count: Eosin: 2%
  Differential Count: Lymph: 46%
  Differential Count: Mono: 3%
  Differential Count: Seg: 48%
  Gamma GT: 74 U/L
  Glucose: 93 mg/dL
  Hct: 30.8%
  Hgb: 10.1 g/dL
  K+: 4.3 mEq/l
  MCH: 11.2 pg
  MCHC: 32.7 G/dl
  MCV: 34.2 fL
  Na+: 150 mEq/l
  Phos: 4.9 mg/dL
  RBC: 9.02e+06 µL⁻¹
  Total Bili: 0.3 mg/dL
  Total Prot: 7.2 g/dL
  WBC: 3600 µL⁻¹
Sheep Petunia #439, 15 mg/day, Day 15, platelet clumps observed
  Platlet Count: 606• ×10^3/μl
[2]
  ALT: 0 U/L
  AST: 97 U/L
  Albumin: 3.6 g/dL
  Alk Phos: 49 U/L
  BUN: 17 mg/dL
  CPK: 91 U/L
  Cholesterol: 65 mg/dL
  Creatinine: 1.2 mg/dL
  Differential Count: Atyp lym: 1%
  Differential Count: Bands: 0%
  Differential Count: Eosin: 7%
  Differential Count: Lymph: 47%
  Differential Count: Mono: 4%
  Differential Count: Seg: 41%
  Gamma GT: 77 U/L
  Glucose: 68 mg/dL
  Hct: 36.0%
  Hgb: 11.8 g/dL
  K+: 5.2 mEq/l
  MCH: 11.2 pg
  MCHC: 32.7 G/dl
  MCV: 34.1 fL
  Na+: 146 mEq/l
  Phos: 6.2 mg/dL
  Platlet Count: 356000 µL⁻¹
  RBC: 1.05e+07 µL⁻¹
  Total Bili: 0.1 mg/dL
  Total Prot: 6.3 g/dL
  WBC: 2300 µL⁻¹
[3]
  Differential Count: Atyp lym: 0%
  Differential Count: Bands: 0%
  Differential Count: Eosin: 2%
  Differential Count: Lymph: 48%
  Differential Count: Mono: 2%
  Differential Count: Seg: 48%
  Hct: 40.7%
  Hgb: 13.5 g/dL
  MCH: 12.4 pg
  MCHC: 33.2 g/dL
  MCV: 37.2 fL
  Platlet Count: 215000 µL⁻¹
  RBC: 1.09e+07 µL⁻¹
  WBC: 3530 µL⁻¹
[4]
  ALT: 3 U/L
  AST: 67 U/L
  Albumin: 3.5 g/dL
  Alk Phos: 37 U/L
  BUN: 10 mg/dL
  CPK: 73 U/L
  Cholesterol: 71 mg/dL
  Creatinine: 1.3 mg/dL
  Differential Count: Atyp lym: 0%
  Differential Count: Bands: 0%
  Differential Count: Eosin: 1%
  Differential Count: Lymph: 41%
  Differential Count: Mono: 5%
  Differential Count: Seg: 53%
  Gamma GT: 46 U/L
  Glucose: 72 mg/dL
  Hct: 40.4%
  Hgb: 13.4 g/dL
  K+: 4.6 mEq/l
  MCH: 12.3 pg
  MCHC: 33.1 g/dL
  MCV: 37.1 fL
  Na+: 153 mEq/l
  Phos: 7.5 mg/dL
  Platlet Count: 319000 µL⁻¹
  RBC: 1.09e+07 µL⁻¹
  Total Bili: 0 mg/dL
  Total Prot: 6.8 g/dL
  WBC: 3470 µL⁻¹
[5]
  ALT: 8 U/L
  AST: 69 U/L
  Albumin: 3.9 g/dL
  Alk Phos: 33 U/L
  BUN: 14 mg/dL
  CPK: 94 U/L
  Cholesterol: 3.5 mg/dL
  Creatinine: 1.2 mg/dL
  Differential Count: Atyp lym: 0%
  Differential Count: Bands: 0%
  Differential Count: Eosin: 1%
  Differential Count: Lymph: 33%
  Differential Count: Mono: 5%
  Differential Count: Seg: 61%
  Gamma GT: 74 U/L
  Glucose: 89 mg/dL
  Hct: 31.4%
  Hgb: 10.2 g/dL
  K+: 4.2 mEq/l
  MCH: 12.3 pg
  MCHC: 32.3 g/dL
  MCV: 38.2 fL
  Na+: 150 mEq/l
  Phos: 48 mg/dL
  Platlet Count: 173000 µL⁻¹
  RBC: 8.23e+06 µL⁻¹
  Total Bili: 0.2 mg/dL
  Total Prot: 7.4 g/dL
  WBC: 3170 µL⁻¹
[6]
  ALT: 13 U/L
  AST: 59 U/L
  Albumin: 3.5 g/dL
  Alk Phos: 55 U/L
  BUN: 17 mg/dL
  CPK: 93 U/L
  Cholesterol: 62 mg/dL
  Creatinine: 1.3 mg/dL
  Differential Count: Atyp lym: 1%
  Differential Count: Bands: 0%
  Differential Count: Eosin: 5%
  Differential Count: Lymph: 40%
  Differential Count: Mono: 5%
  Differential Count: Seg: 49%
  Gamma GT: 42 U/L
  Glucose: 61 mg/dL
  Hct: 39.2%
  Hgb: 12.2 g/dL
  K+: 4.8 mEq/l
  MCH: 12.0 pg
  MCHC: 31.8 g/dL
  MCV: 37.6 fL
  Na+: 147 mEq/l
  Phos: 5.9 mg/dL
  Platlet Count: 214000 µL⁻¹
  RBC: 1.04e+07 µL⁻¹
  Total Bili: 0.1 mg/dL
  Total Prot: 6.4 g/dL
  WBC: 3590 µL⁻¹
